Measured values published in patent US9303006B2, “Line leaf inula flower lactone A and methods for preparing and using the same for treating myocarditis” (SHANXI ZHENDONG PILOT BIOLOGICAL SCIENCE AND TECHNOLOGY …, priority 2012, dated 2016).
Values joined by “and” are separate entries in the source; they are usually repeats but may differ in a detail not shown here. Equal values may be shown once. “Also recorded” adds a separate entry of the source.

Columns and labels:
TNF-α = test: Serum TNF-α in the mouse EAM model; type: in vivo, mice
Experimental: (§1) Pig myocardial myosin (PCM, 1 mg/ml; Sigma, St. Louis, Mo.) (Sigma), and equal volume of Freund's Complete Adjuvant (FCA, Sigma St. Louis, Mo.), were in an uniform emulsification and mixed into a homogeneous emulsion, where the mycobacterium tuberculosis H37Ra bead (Difco, Detroit, Mich.) with final concentration at 5 mg/ml. In the 0th day, the emulsion 0.2 ml (including antigen 200 μg) was taken and subcutaneously administered at the bilateral inguinal and multiple points under the armpit in mice. Seven days after the first immunization, the same procedure was performed to strengthen the immune once. The animals were divided into groups, each group had six mice.
(§2) Beginning on the day of immunity, the mice were given line leaf inula flower lactone A continuously for 21 days. Two dosing methods were applied:
(§3) (1) intraperitoneal injection: Line leaf inula flower lactone A of Example 1 was dissolved in phosphate buffer solution (PBS) (containing 5% DMSO (dimethyl sulfoxide)). The 4 concentration gradients were at 2.5 mg/kg/d^−1 (2.5 mg/kg every time, once a day); 5 mg/kg/d^−1; 10 mg/kg/d^−1; and 20 mg/kg/d^−1.
(§4) Mice after 21 days were killed by taking off the neck, shearing heart, weighing and take photos, pathological section (HE hematoxylin-eosin staining), cytokine TNF-α change.
(3) TNF-α change. TNF-α was an inflammation factor that played an important role in the onset of the EAM. […]

mouse EAM model = test: Mouse experimental autoimmune myocarditis (EAM) model: HW/BW, cardiac morphology, HE pathology; type: in vivo, mice
Experimental: as §1, §2, §3
(2) Intragastric Administration: Line leaf inula flower lactone A suspended in 0.5% CMC-Na (carboxymethyl cellulose sodium). The 3 concentration gradients were at: 10 mg/kg/d^−1; 50 mg/kg/d^−1; and 100 mg/kg/d^−1.
as §4
(1) heart and body weight ratio (HW/BW). Myocarditis in mice after the onset of the myocarditis should have the heart weight/body weight ratio larger than the model group, if the medication was effective, the ratio should be small and close to the normal group.
(2) Cardiac morphology. After the onset of the EAM in mice, the heart appeared swelling and pale as the result of the infiltration by inflammatory cells. Intraperitoneal injection of the line leaf inula flower lactone A (XX-3) were given at various dosages.
(4) pathology (conventional HE staining). Mice were killed by taking off the neck, heart was taken out, and residual blood was removed. Each heart was fixed in 10% formaldehyde, paraffin embedded, continuous sliced with conventional HE staining and observed under the microscope. The model group had visible focal myocardial cell degeneration necrosis, cytoplasm red dye, nuclear disappeared, with some muscle dissolved, interstitial broadening, and various inflammatory cell infiltration.

[1] = test system: coxsackie B group virus B3 type Nancy strains (CVB3); test: CVB3-infected mice myocardial virus measured on cell model at 7th day (heart homogenate 1:10, cell lesions); type: in vivo, Balb/c male mice; conditions: for 1:10 (cell lesions from myocardial homogenate) / Lesions rate % / Average disease rate % / Reduce lesions: 7th day; for 1:10 (cell lesions from myocardial homogenate) / Lesions rate %: individual mice NO 1-5, listed as leaves Inula flowers lactone A; for Average disease rate %: virus control 90%; for Reduce lesions: vs virus control
Experimental: (§5) The thin Leaf inula flower lactone A compound from Example 1 was used; a viral strain: coxsackie B group virus B3 type Nancy strains (CVB3) was used at a virus infection dose of 10LD50 virus 0.2 ml through abdominal cavity infection in mice. The animals used were Balb/c male mice, 13 g to 15 g, from Shanghai West S&P-Bick Experimental Animals Co., Ltd. with animal number: qualified SCXX (Shanghai), 2008-0016. The positive control medicine was human recombinant interferon alpha 2 a, YinTeFen, Shenyang Junior Pharmaceutical co., Ltd., Product batch number 20090708.
(§6) Preparation and administration: the line leaf inula flower lactone A compound was weighed, ground, and suspended in 0.5% CMC (carboxymethyl cellulose) mixture at 10 mg/ml solution. Oral administration of the medicine was conducted for once per day, every time at 0.5 ml, for 7 days.
(§7) The experimental groups included (1) the viral infection group, each group had 10 mice, were given 0.5% CMC solution and virus.
(§8) Another group of 10 mice, with infection, was weighed after 7 days. Four mice were taken to detect cardiac function, and killed and dissected for collecting blood to test neutralizing antibody, heart weighing calculation index, and grinding the heart, with three resistance MEM fluid containing 10%. 1:10 dilution, on the cell model to detect coxsackie virus in mice drop degree (to observe the myocardial cell lesions) separation of virus infection.

[2] = test system: coxsackie B group virus B3 type Nancy strains (CVB3); test: Serum neutralizing antibody in CVB3-infected mice; type: in vivo, Balb/c male mice; conditions: oral treatment; concentration-response relationship by 7 days
Experimental: as §5, §6, §7
as §8, with “1:10 dilution, on the cell model to detect coxsackie virus in mice drop degree (to observe the myocardial cell lesions) separation of virus infection.” left out

[3] = test system: coxsackie B group virus B3 type Nancy strains (CVB3); test: Life protection (survival time) of mice infected by CVB3; type: in vivo, Balb/c male mice; conditions: for Survival time M: CVB3-infected mice, observed 14 days; for prolonged survival time, extended percentage: vs virus control
Experimental: as §5, §6, §7
Test process was that after virus infection in mice (except the normal control group) for 2 hours, total drug delivery was performed 7 days in a row, observation was conducted until 14 days. The incidence and deaths were recorded every day, and the average survival days prolongation of life were calculated with p value calculation.

CVB3-Infected Mice = test: Live body weight in CVB3-infected mice; type: in vivo, Balb/c male mice
Experimental: as §5, §6, §7, §8

C=C1C(=O)O[C@H]2C[C@@H](C)[C@@H]3[C@@H](OC(C)=O)C[C@H](O)[C@@]3(C)[C@@H](OC(C)=O)[C@H]12 [line leaf inula flower lactone A]
levels of serum TNF-α vs model group (TNF-α; intraperitoneal injection 20 mg/kg, 21 days, #P<0.05): the difference was significant
levels of serum TNF-α vs model group (TNF-α; intraperitoneal injection, 21 days after first immunization, FIG. 4): decreased
curative effect on EAM in mice (mouse EAM model; 100 mg/kg/d intragastric administration): has certain curative effect
pathology (HE staining), efficacy (mouse EAM model; intragastric administration at 100 mg/kg·d^−1): worked the best
Cardiac morphology, effect on the EAM model (mouse EAM model; intragastric administration, 21 days, FIG. 3): has curative effect on the EAM model
Cardiac morphology, efficacy (mouse EAM model; intraperitoneal injection 20 mg/kg/d^−1, 21 days): worked the best efficacy
heart and body weight ratio (HW/BW) (mouse EAM model; intraperitoneal injection 20 mg/kg/d^−1, 21 days, FIG. 1): changed HW/BW significantly
pathology (HE staining), efficacy (mouse EAM model; intraperitoneal injection at 20 mg/kg·d^−1): worked the best
occurrence of the EAM in mice (mouse EAM model; intraperitoneal injection of 20 mg/kg/d): prevents the occurrence of the EAM in mice
most effective dose (cardiac morphology) (mouse EAM model; intraperitoneal injection, 21 days): 20 mg/kg/d^−1
Cardiac morphology, degree and extent of the lesion vs model and solvent control groups (mouse EAM model; intraperitoneal injection, various dosages (2.5-20 mg/kg/d^−1), 21 days, FIG. 2): various degrees of improvement
pathology (HE staining), myocardial inflammation (mouse EAM model; various dosages, vs model and solvent control groups, FIG. 5): had curative effect on myocardial inflammation in mice
1:10 (cell lesions from myocardial homogenate) ([1]; 10 mg/kg oral): + (: + 50%); also recorded: ++ (++ 100%)
Lesions rate % ([1]; 10 mg/kg oral): 50% (4×) and 100%
Average disease rate % ([1]; 10 mg/kg oral): 60%
Reduce lesions ([1]; 10 mg/kg oral): 33.33%
1:10 (cell lesions from myocardial homogenate) ([1]; 50 mg/kg oral): ± (plus or minus: 0%); also recorded: + (: + 50%); also recorded: ++ (++ 100%)
Lesions rate % ([1]; 50 mg/kg oral): 25% and 50% (3×) and 100%
Average disease rate % ([1]; 50 mg/kg oral): 55%
Reduce lesions ([1]; 50 mg/kg oral): 38.89%
1:10 (cell lesions from myocardial homogenate) ([1]; 100 mg/kg oral): ± (plus or minus: 0%); also recorded: + (: + 50%)
Lesions rate % ([1]; 100 mg/kg oral): 25% (2×) and 50% (3×)
Average disease rate % ([1]; 100 mg/kg oral): 40%
Reduce lesions ([1]; 100 mg/kg oral): 55.56%
effect on the coxsackie virus replication in the myocardial ([1]; CVB3-infected mice, oral treatment): inhibitory effect
effect on neutralizing antibodies in the CVB3-infected mice [2]: improved the neutralizing antibodies
Survival time M ([3]; 10 mg/kg oral once per day for 7 days): 8.9 days
prolonged survival time, extended percentage ([3]; 10 mg/kg oral): 21.92%
Survival time M ([3]; 50 mg/kg oral once per day for 7 days): 9 days
prolonged survival time, extended percentage ([3]; 50 mg/kg oral): 23.29%
Survival time M ([3]; 100 mg/kg oral once per day for 7 days): 9.4 days
prolonged survival time, extended percentage ([3]; 100 mg/kg oral): 28.77%
activity against coxsackie virus ([3]; summary statement, concentration-response correlation): has activity against coxsackie virus
Live body weight M ± SD (CVB3-Infected Mice; 10 mg/Kg, 4 days): 15.23 ± 1.01
Live body weight M ± SD (CVB3-Infected Mice; 10 mg/Kg, 8 days): 15.59 ± 0.89
Live body weight M ± SD (CVB3-Infected Mice; 10 mg/Kg, 14 days): 17.92 ± 1.10
Live body weight M ± SD (CVB3-Infected Mice; 10 mg/Kg, Before): 14.59 ± 0.71
Live body weight M ± SD (CVB3-Infected Mice; 50 mg/Kg, 4 days): 15.14 ± 0.68
Live body weight M ± SD (CVB3-Infected Mice; 50 mg/Kg, 8 days): 16.03 ± 0.96
Live body weight M ± SD (CVB3-Infected Mice; 50 mg/Kg, 14 days): 18.33 ± 0.80
Live body weight M ± SD (CVB3-Infected Mice; 50 mg/Kg, Before): 14.58 ± 0.49
Live body weight M ± SD (CVB3-Infected Mice; 100 mg/Kg, 4 days): 15.13 ± 0.88
Live body weight M ± SD (CVB3-Infected Mice; 100 mg/Kg, 8 days): 16.1 ± 1.05
Live body weight M ± SD (CVB3-Infected Mice; 100 mg/Kg, 14 days): 18.21 ± 0.86
Live body weight M ± SD (CVB3-Infected Mice; 100 mg/Kg, Before): 14.57 ± 0.55
